Earlier results in patent US20080139531A1, “USE OF CONNECTIVE TISSUE MAST CELL STABILIZERS TO FACILITATE OCULAR SURFACE RE-EPITHELIZATION AND WOUND REPAIR” (ALCON MANUFACTURING LTD., priority 2006, published 2008).

System: human conjunctival mast cells
Details: qualitative statement citing Yanni et al., 1997

SMILES	inhibition of histamine release from human conjunctival mast cells
CN(C)CCC=C1c2ccccc2COc2ccc(CC(=O)O)cc21 [olopatadine, 11-(3-dimethylaminopropylidene)-6,11-dihydrodibenz[b,e]oxepin-2-acetic acid]	inhibits histamine release
Cc1cccn2c(=O)c(-c3nnn[nH]3)cnc12 [pemirolast]	Unlike cromolyn and pemirolast, olopatadine inhibits histamine release
